Measurements: the NIST ThermoML archive (doi:10.1016/j.jct.2019.03.011)

Test: wn = mass fraction of the nth substance listed
Conditions: 101 kPa, Liquid; for viscosity: Falling or rolling sphere viscometry; for speed of sound: Frequency=3 MHz, Single path-length method; for mass density: Vibrating tube method

Cl.NNC(N)=O [semicarbazide hydrochloride] + O
Conditions	mass density, w1 = 0.01 [kg/m3]	mass density, w1 = 0.02 [kg/m3]	speed of sound, w1 = 0.01 [m/s]	speed of sound, w1 = 0.02 [m/s]	viscosity, w1 = 0.01 [mPa·s]	viscosity, w1 = 0.02 [mPa·s]
293.15 K	1002.51	1006.71	1490	1495.8	1.016	1.031
298.15 K	1001.29	1005.43	1503	1509	0.9018	0.9134
303.15 K	999.819	1003.99	1515.1	1520.9	0.8053	0.8152
308.15 K	998.185	1002.31	1525.6	1531.2	0.7251	0.733
313.15 K	996.304	1000.34	1534.3	1540	0.6562	0.6646
318.15 K	994.429	998.472	1540.7	1546.7	0.6021	0.6062
